From patent US20070128217A1 (priority 2003, published 2007)

Tests used:
[1] = system: antibodies in sera from SARS patients (sera 1a, 1b, 2, 6, 37, 62, London, SARS-yellow, SARS-green); format: binding, human; set-up: Binding of serum 6 to linear peptides of protein X1 of SARS-CoV Urbani / Binding of serum 37 to linear peptides of protein X1 of SARS-CoV Urbani / Binding of serum 6 to looped/cyclic peptide (PEPSCAN-ELISA) / Binding of serum 37 to looped/cyclic peptide (PEPSCAN-ELISA) / Binding of serum 37 to looped/cyclic peptides of protein X1 of SARS-CoV Urbani / Binding of serum 6 to linear peptides of protein X2 / Binding of serum 37 to linear peptides of protein X2 / Binding of serum 37 to looped/cyclic peptides of protein X2 of SARS-CoV Urbani / Binding of serum 6 to linear peptides of protein M of SARS-CoV Urbani / Binding of serum 37 to linear peptides of protein M of SARS-CoV Urbani / Binding of serum 6 to looped/cyclic peptides of protein M of SARS-CoV Urbani / Binding of serum 37 to looped/cyclic peptides of protein M of SARS-CoV Urbani / Binding of serum 6 to linear peptides of protein X3 of SARS-CoV Urbani / Binding of serum 37 to linear peptides of protein X3 of SARS-CoV Urbani / Binding of serum 37 to looped/cyclic peptides of protein X3 of SARS-CoV Urbani / Binding of serum 6 to linear peptides of protein X4 of SARS-CoV Urbani / Binding of serum 37 to linear peptides of protein X4 of SARS-CoV Urbani / Binding of serum 37 to looped/cyclic peptides of protein X4 of SARS-CoV Urbani / Binding of serum 6 to linear peptides of protein X5 of SARS-CoV Urbani / Binding of serum 37 to linear peptides of protein X5 of SARS-CoV Urbani / Binding of serum 37 to looped/cyclic peptides of protein X5 of SARS-CoV Urbani / Binding of serum 6 to linear peptides of protein N of SARS-CoV Urbani / Binding of serum 37 to linear peptides of protein N of SARS-CoV Urbani / Binding of serum 6 to linear peptide (PEPSCAN-ELISA) / Binding of serum 1a to looped/cyclic peptides of protein N of SARS-CoV Urbani / Binding of serum 1b to looped/cyclic peptides of protein N of SARS-CoV Urbani / Binding of serum 2 to looped/cyclic peptides of protein N of SARS-CoV Urbani / Binding of serum 6 to looped/cyclic peptides of protein N of SARS-CoV Urbani / Binding of serum 37 to looped/cyclic peptides of protein N of SARS-CoV Urbani / Binding of serum 62 to looped/cyclic peptides of protein N of SARS-CoV Urbani / Binding of serum London to looped/cyclic peptides of protein N of SARS-CoV Urbani / Binding of serum SARS-green to looped/cyclic peptides of protein N of SARS-CoV Urbani: unit not given here
[2] = system: control sera (pooled serum of ten healthy LUMC hospital workers; commercial negative donor pooled serum from the Dutch bloodbank); format: binding, human; set-up: Binding of Control serum LUMC to linear peptides / Binding of Control serum Blood-bank to linear peptides / Binding of Control serum LUMC to looped peptides / Binding of Control Serum Blood-Bank to Looped peptides / Binding of Control serum LUMC to linear peptides of the protein M of SARS-CoV Urbani / Binding of Control serum Blood-bank to linear peptides of the protein M of SARS-CoV Urbani / Binding of Control serum LUMC to looped peptides of the protein M of SARS-CoV Urbani / Binding of Control Serum Blood-Bank to Looped peptides of the protein M of SARS-CoV Urbani: unit not given here
[3] = system: rabbit serum obtained by immunizing a rabbit with the SARS-CoV strain Frankfurt 1; format: binding; set-up: Binding of a rabbit serum to linear peptides / Binding of a rabbit serum to looped peptides / Rabbit serum linear peptides / Rabbit serum looped peptides / Binding of a rabbit serum to linear peptides of protein N of SARS-CoV Urbani (Rabbit serum linear peptides) / Binding of a rabbit serum to looped/cyclic peptides of protein N of SARS-CoV Urbani (Rabbit serum looped peptides): unit not given here

## HFAFACADGTRHTYQ
[1]
  Binding of serum 1a to linear peptides of protein X4 of SARS-CoV Urbani: 0.7
  Binding of serum 1a to looped/cyclic peptides of protein X4 of SARS-CoV Urbani: 0.6
  Binding of serum 1b to linear peptides of protein X4 of SARS-CoV Urbani: 0.5
  Binding of serum 1b to looped/cyclic peptides of protein X4 of SARS-CoV Urbani: 0.5
  Binding of serum 2 to linear peptides of protein X4 of SARS-CoV Urbani: 0.4
  Binding of serum 2 to looped/cyclic peptides of protein X4 of SARS-CoV Urbani: 0.6
  Binding of serum 6 to linear peptides of protein X4 of SARS-CoV Urbani: 0.6
  Binding of serum 6 to looped/cyclic peptides of protein X4 of SARS-CoV Urbani: 0.6
  Binding of serum 37 to linear peptides of protein X4 of SARS-CoV Urbani: 0.6
  Binding of serum 37 to looped/cyclic peptides of protein X4 of SARS-CoV Urbani: 0.6
  Binding of serum 62 to linear peptides of protein X4 of SARS-CoV Urbani: 0.6
  Binding of serum 62 to looped/cyclic peptides of protein X4 of SARS-CoV Urbani: 0.5
  Binding of serum London to linear peptides of protein X4 of SARS-CoV Urbani: 0.6
  Binding of serum London to looped/cyclic peptides of protein X4 of SARS-CoV Urbani: 0.2
  Binding of serum SARS-green to linear peptides of protein X4 of SARS-CoV Urbani: 0.6
  Binding of serum SARS-green to looped/cyclic peptides of protein X4 of SARS-CoV Urbani: 0.2
  Binding of serum SARS-yellow to linear peptides of protein X4 of SARS-CoV Urbani: 0.1
  Binding of serum SARS-yellow to looped/cyclic peptides of protein X4 of SARS-CoV Urbani: 0.4
[2]
  Binding of Control Serum Blood-Bank to Looped peptides: 0.8
  Binding of Control serum Blood-bank to linear peptides: 0.6
  Binding of Control serum LUMC to linear peptides: 0.7
  Binding of Control serum LUMC to looped peptides: 0.7
[3]
  Rabbit serum linear peptides: 0.4
  Rabbit serum looped peptides: 0.1

## TCTSTHFAFACADGT
[1]
  Binding of serum 1a to linear peptides of protein X4 of SARS-CoV Urbani: 0.8
  Binding of serum 1a to looped/cyclic peptides of protein X4 of SARS-CoV Urbani: 0.8
  Binding of serum 1b to linear peptides of protein X4 of SARS-CoV Urbani: 0.7
  Binding of serum 1b to looped/cyclic peptides of protein X4 of SARS-CoV Urbani: 0.6
  Binding of serum 2 to linear peptides of protein X4 of SARS-CoV Urbani: 0.5
  Binding of serum 2 to looped/cyclic peptides of protein X4 of SARS-CoV Urbani: 0.8
  Binding of serum 6 to linear peptides of protein X4 of SARS-CoV Urbani: 0.7
  Binding of serum 6 to looped/cyclic peptides of protein X4 of SARS-CoV Urbani: 0.6
  Binding of serum 37 to linear peptides of protein X4 of SARS-CoV Urbani: 0.7
  Binding of serum 37 to looped/cyclic peptides of protein X4 of SARS-CoV Urbani: 0.7
  Binding of serum 62 to linear peptides of protein X4 of SARS-CoV Urbani: 0.9
  Binding of serum 62 to looped/cyclic peptides of protein X4 of SARS-CoV Urbani: 0.8
  Binding of serum London to linear peptides of protein X4 of SARS-CoV Urbani: 0.8
  Binding of serum London to looped/cyclic peptides of protein X4 of SARS-CoV Urbani: 0.3
  Binding of serum SARS-green to linear peptides of protein X4 of SARS-CoV Urbani: 0.6
  Binding of serum SARS-green to looped/cyclic peptides of protein X4 of SARS-CoV Urbani: 0.5
  Binding of serum SARS-yellow to linear peptides of protein X4 of SARS-CoV Urbani: 0.6
  Binding of serum SARS-yellow to looped/cyclic peptides of protein X4 of SARS-CoV Urbani: 0.8
[2]
  Binding of Control Serum Blood-Bank to Looped peptides: 0.7
  Binding of Control serum Blood-bank to linear peptides: 0.8
  Binding of Control serum LUMC to linear peptides: 0.9
  Binding of Control serum LUMC to looped peptides: 0.8
[3]
  Rabbit serum linear peptides: 0.5
  Rabbit serum looped peptides: 0.7

## TGIENATFFIFNKLV
[1]
  Binding of serum 1a to linear peptides of protein X1 of SARS-CoV Urbani: 0.7
  Binding of serum 1a to looped/cyclic peptides of protein X1 of SARS-CoV Urbani: 0.6
  Binding of serum 1b to linear peptides of protein X1 of SARS-CoV Urbani: 0.5
  Binding of serum 1b to looped/cyclic peptides of protein X1 of SARS-CoV Urbani: 0.5
  Binding of serum 2 to linear peptides of protein X1 of SARS-CoV Urbani: 0.6
  Binding of serum 2 to looped/cyclic peptides of protein X1 of SARS-CoV Urbani: 0.6
  Binding of serum 6 to linear peptides of protein X1 of SARS-CoV Urbani: 0.5
  Binding of serum 6 to looped/cyclic peptides of protein X1 of SARS-CoV Urbani: 0.5
  Binding of serum 37 to linear peptides of protein X1 of SARS-CoV Urbani: 0.7
  Binding of serum 37 to looped/cyclic peptides of protein X1 of SARS-CoV Urbani: 0.7
  Binding of serum 62 to linear peptides of protein X1 of SARS-CoV Urbani: 0.7
  Binding of serum 62 to looped/cyclic peptides of protein X1 of SARS-CoV Urbani: 0.7
  Binding of serum London to linear peptides of protein X1 of SARS-CoV Urbani: 0.3
  Binding of serum London to looped/cyclic peptides of protein X1 of SARS-CoV Urbani: 0.3
  Binding of serum SARS-green to linear peptides of protein X1 of SARS-CoV Urbani: 0.4
  Binding of serum SARS-green to looped/cyclic peptides of protein X1 of SARS-CoV Urbani: 0.2
  Binding of serum SARS-yellow to linear peptides of protein X1 of SARS-CoV Urbani: 0.6
  Binding of serum SARS-yellow to looped/cyclic peptides of protein X1 of SARS-CoV Urbani: 0.4
[2]
  Binding of Control Serum Blood-Bank to Looped peptides: 0.8
  Binding of Control serum Blood-bank to linear peptides: 0.8
  Binding of Control serum LUMC to linear peptides: 0.7
  Binding of Control serum LUMC to looped peptides: 0.7
[3]
  Binding of a rabbit serum to linear peptides: 0.1
  Binding of a rabbit serum to looped peptides: 0.6

## PAGGALIARCWYLHE
[1]
  Binding of serum 1a to linear peptides of protein X5 of SARS-CoV Urbani: 0.8
  Binding of serum 1a to looped/cyclic peptides of protein X5 of SARS-CoV Urbani: 0.8
  Binding of serum 1b to linear peptides of protein X5 of SARS-CoV Urbani: 0.9
  Binding of serum 1b to looped/cyclic peptides of protein X5 of SARS-CoV Urbani: 0.6
  Binding of serum 2 to linear peptides of protein X5 of SARS-CoV Urbani: 0.6
  Binding of serum 2 to looped/cyclic peptides of protein X5 of SARS-CoV Urbani: 0.6
  Binding of serum 6 to linear peptides of protein X5 of SARS-CoV Urbani: 0.8
  Binding of serum 6 to looped/cyclic peptides of protein X5 of SARS-CoV Urbani: 0.4
  Binding of serum 37 to linear peptides of protein X5 of SARS-CoV Urbani: 0.9
  Binding of serum 37 to looped/cyclic peptides of protein X5 of SARS-CoV Urbani: 0.7
  Binding of serum 62 to linear peptides of protein X5 of SARS-CoV Urbani: 0.9
  Binding of serum 62 to looped/cyclic peptides of protein X5 of SARS-CoV Urbani: 0.7
  Binding of serum London to linear peptides of protein X5 of SARS-CoV Urbani: 0.7
  Binding of serum London to looped/cyclic peptides of protein X5 of SARS-CoV Urbani: 0.3
  Binding of serum SARS-green to linear peptides of protein X5 of SARS-CoV Urbani: 0.9
  Binding of serum SARS-green to looped/cyclic peptides of protein X5 of SARS-CoV Urbani: 0.6
  Binding of serum SARS-yellow to linear peptides of protein X5 of SARS-CoV Urbani: 0.3
  Binding of serum SARS-yellow to looped/cyclic peptides of protein X5 of SARS-CoV Urbani: 0.5
[2]
  Binding of Control Serum Blood-Bank to Looped peptides: 0.8
  Binding of Control serum Blood-bank to linear peptides: 0.7
  Binding of Control serum LUMC to linear peptides: 0.4
  Binding of Control serum LUMC to looped peptides: 0.5
[3]
  Rabbit serum linear peptides: 0.5
  Rabbit serum looped peptides: 0.5

## VTRPLMESELVIGAV
[1]
  Binding of serum 1a to linear peptides of protein M of SARS-CoV Urbani: 0.8
  Binding of serum 1b to linear peptides of protein M of SARS-CoV Urbani: 0.6
  Binding of serum 2 to linear peptides of protein M of SARS-CoV Urbani: 0.9
  Binding of serum 6 to linear peptides of protein M of SARS-CoV Urbani: 0.2
  Binding of serum 37 to linear peptides of protein M of SARS-CoV Urbani: 1.0
  Binding of serum 62 to linear peptides of protein M of SARS-CoV Urbani: 0.9
  Binding of serum London to linear peptides of protein M of SARS-CoV Urbani: 0.3
  Binding of serum SARS-green to linear peptides of protein M of SARS-CoV Urbani: 0.3
  Binding of serum SARS-yellow to linear peptides of protein M of SARS-CoV Urbani: 0.1
  Recognition of the peptide by sera of SARS-CoV infected individuals, and form (linear, looped/cyclic) in which it is recognized: recognized in looped/cyclic form
[2]
  Binding of Control Serum Blood-Bank to Looped peptides of the protein M of SARS-CoV Urbani: 0.9
  Binding of Control serum Blood-bank to linear peptides of the protein M of SARS-CoV Urbani: 0.6
  Binding of Control serum LUMC to linear peptides of the protein M of SARS-CoV Urbani: 0.4
  Binding of Control serum LUMC to looped peptides of the protein M of SARS-CoV Urbani: 1.0
[3]
  Rabbit serum linear peptides: 0.4
  Rabbit serum looped peptides: 0.2
